{"source": "paper PMC5289470", "about": "“The biodistribution of 5-[^18F]fluoropyrazinamide in Mycobacterium tuberculosis-infected mice determined by positron emission tomography” (PLoS ONE, 2017)", "origin": "cited, not measured here", "system": "PZA-resistant M. tuberculosis isolates", "conditions": "ref [14], [30]; cited from earlier work", "data": [{"smiles": "NC(=O)c1cnc(Cl)cn1", "note": "[5-Cl-PZA, 5-Chloropyrazinamide]", "values": [{"measurement": "in vitro activity against PZA-resistant M. tuberculosis isolates", "value": "has in vitro activity"}]}]}
